In patent US4908138A (priority 1987, dated 1990):

Columns and labels:
[1] = Inhibition of conversion of calcium hydrogen phosphate into hydroxyl apatite (protons released); conditions: protons released in a calcium phosphate solution supersaturated at 60° C.
Procedure: A crucial step in the formation of tartar is the conversion of calcium hydrogen phosphate into hydroxyl apatite. […] To this end, the degree of inhibition of this conversion was measured by determining the protons released in a calcium phosphate solution supersaturated at 60° C. in accordance with the following equation: […]

[2] = Reduction of the solubility of synthetic apatite after treatment; conditions: pH 5, consumption of lactic acid; comparison with untreated apatite
Procedure: The hydroxyacetonitrile diphosphonic acid of the invention effectively reduces the solubility of apatite by absorbing it on the tartar surface. To determine this property, the solubility of synthetic apatite after treatment with the hydroxyacetonitrile diphosphonic acid is determined by comparison with untreated apatite. To this end, a suspension of apatite is kept at pH 5 by neutralizing the hydroxyl ions passing into solution with lactic acid and determining the consumption of acid required for this purpose.

[3] = Hampshire test (calcium complexing power); assay type: physicochemical; conditions: pH 11; titrated with 0.2 molar calcium chloride until it remained cloudy; used as tetrasodium salt, converted for the pure diphosphonic acid
Procedure: The calcium complexing power was determined by the Hampshire test in which the hydroxyacetonitrile diphosphonic acid, to which Na2 CO3 has been added, was titrated with a 0.2 molar calcium chloride solution at pH 11 until it remained cloudy. Hydroxyacetonitrile diphosphonic acid was used in the form of its tetrasodium salt and the measured values obtained were converted for the pure diphosphonic acid.

Row | SMILES | degree of inhibition of conversion of calcium hydrogen phosphate into hydroxyl apatite [1] | Reduction of the solubility of apatite [2] | calcium complexing power [3]
1 | O=P(O)(O)C(O)P(=O)(O)O [Hydroxymethane diphosphonic acid] | 81% |  | 
2 | CC(O)(P(=O)(O)O)P(=O)(O)O |  | 53% | 
3 | O=P(O)(O)C(O)P(=O)(O)O [drawing 8] |  |  | 130 mg CaCO3 /g acid
4 | N#CC(O)(P(=O)(O)O)P(=O)(O)O [Hydroxyacetonitrile diphosphonic acid, hydroxyacetonitrile diphosphonic acid] | 91% | 65% | 520 mg CaCO3 /g acid
